# In patent US20260000642A1 (Tay Therapeutics Limited, priority 2022, published 2026):
# Where “and” joins values, the source holds several entries; their conditions need not be identical. Equal entries are not always repeated. Entries after “also recorded” stand apart in the source; their conditions may differ. Where two headings read alike, the source gives them in different places.
# Key:
# [1] = system: UUO renal fibrosis in rats; assay: Unilateral Urethral Obstruction (UUO) rat renal fibrosis model: body weight, clinical observations, nephropathy scores; assay type: in vivo; set-up: Glomerulosclerosis clinical score / Interstitial nephritis clinical score / Collagen fiber deposition clinical score / Nephropathy clinical score: scale not given here; details: for Body weight: individual animals ID 1-8; for Clinical Observation: — = no finding, cells wrap: soft/stool, Anal/dirty
# Text: Unilateral Urethral Obstruction (UUO) is a complex model of renal fibrosis (RF) disease. RF is a common outcome in progressive chronic kidney diseases, characterized by excessive formation of internal scar tissue. Surgical obstruction of urine flow can be used to trigger this disease in rodents. The UUO model allows for evaluation of potential drugs as treatment for RF.
# Experimental groups for the study are outlined in Table 10. […] Briefly, animals were anesthetized using a Zoletil/Xylazine mixture (20:1, v:v) for a final dose of 25 mg/kg. The operation area was disinfected with 75% alcohol before shaving. Rats in UUO group were exposed left ureter through a small incision on the left side of the abdomen and ligated with 3-0 silk at two locations about 0.5 cm below the renal hilum. The ureters of sham rats in Group 1 were manipulated but not ligated.
# Starting on Day 0, animals in group 2 were administered daily doses of the vehicle for 14 days.
# (§1) Clinical signs for all animals were monitored and recorded daily. Blind clinical nephropathy scores were conducted for all animals in the study. Glomerulosclerosis, interstitial nephritis, collagen fiber deposition, nephropathy were each assessed for all experimental rats, and a total clinical score was determined for each rat. The scoring system represented the degree or percentage of lesions in the whole kidney. Clinical score assessments were performed on Day 14.
# Starting on Day 0, animals in group 2 were administered daily doses of the vehicle for 14 days. […] A design of the UUO study is depicted in FIG. 9B.
# as §1, with “Blind” for “Clinical signs for all animals were monitored and recorded daily. Blind”, “deposition, and” for “deposition,”
# [2] = Beagle dog PK study 1 (IV and PO, propylene glycol-based formulation); assay type: in vivo; details: for concentration at 0.25 h / concentration at 0.5 h / concentration at 1 h / concentration at 2 h / concentration at 4 h / concentration at 8 h / concentration at 24 h: beagle, dog, plasma, po, 5 mg/kg
# Description: The purpose of this study was to examine the pharmacokinetics of Example 101 in beagle dogs. […] An oral PK study was also undertaken in Lewis rats—see Experimental Method C.
# Body weight was recoded prior to dosing, and detailed clinical observations were made prior to dosing and throughout the study, as needed.
# Subsequently, 17.320 mL Vitamin E TPGS was added, and the solution was vortexed and sonicated. Then, 51.960 mL water was added, and solution was then heated. […] Subsequently, 39.894 mL Vitamin E TPGS was added, and the solution was vortexed and sonicated. Then, 119.682 mL water was added, and the solution was heated.
# Blood samples (˜0.3 mL) were collected according to a schedule (detailed below) by venipuncture of peripheral veins except for the dosing vein, and EDTA-K2 was used as anticoagulant. Within 30 minutes of collection, the samples were centrifuged at approximately 2000× g for 10 minutes at 4° C. to obtain blood plasma. The plasma samples were immediately divided into two aliquots (˜75 μL each), transferred to a cryogenic vial, and stored in a freezer at −75±15° C. prior to analysis.
# Blood samples were collected at 0.25, 0.5, 1, 2, 4, 8, and 24 h following the initial dosing (0 h).
# The experiments were conducted on a Shimadzu DGU-20A5R and AB API 5500+LC/MS/MS instrument with an Agilent Poroshell EC-C18 4 μm (50×2.1 mm) column. A gradient of 95% water (0.1% formic acid)/95% acetonitrile (0.1% formic acid) was used as the mobile phase. The sample injection volume was 1 μL, and the flow rate was 0.6 mL/min. The gathered data were used for pharmacokinetic calculations using T½, C0, AUClast, AUCinf, MRTinf, CI, Vss, and Number of Points for Regression as parameters.
# [3] = UUO rats, individual animals No. 1-8
# [4] = PK study 1, PO 5 mg/kg, Test Animal 1, read-out: Plasma concentration
# [5] = PK study 1, PO 5 mg/kg, Test Animal 2, read-out: Plasma concentration
# [6] = PK study 1, PO 5 mg/kg, Test Animal 3, read-out: Plasma concentration
# [7] = PK study 1, PO 5 mg/kg, read-out: Average plasma concentration, Mean
smiles,measurement,setting,value
"CNC(=O)c1[nH]c(C(=O)NC2CCC2)cc1O[C@@H](C)c1ccccc1 [Example 101, N^5-cyclobutyl-N^2-methyl-3-(1-phenylethoxy)-1H-pyrrole-2,5-dicarboxamide]",clinical symptoms associated with UUO (overall conclusion),[1]; 30 mg/kg,ameliorates clinical symptoms associated with UUO
same,Body weight,"[1]; UUO rats, 30 mg/kg, Day 5, 30 mg/kg",310 g
same,Body weight,"[1]; UUO rats, 30 mg/kg, Day 7, 30 mg/kg",270 g
same,Body weight,"[1]; UUO rats, 30 mg/kg, Day 8, 30 mg/kg",260 g and 290 g
same,Body weight,"[1]; UUO rats, 30 mg/kg, Day 10, 30 mg/kg",330 g (2×) and 320 g
same,Body weight,"[1]; UUO rats, 30 mg/kg, Day 11, 30 mg/kg",300 g and 330 g
same,Body weight,"[1]; UUO rats, 30 mg/kg, Day 12, 30 mg/kg",260 g and 310 g and 300 g and 340 g
same,Collagen fiber deposition clinical score,[1]; [3],2 (2×) and 1 (6×)
same,Glomerulosclerosis clinical score,[1]; [3],0
same,Interstitial nephritis clinical score,[1]; [3],3 (5×) and 2 (3×)
same,Nephropathy clinical score,[1]; [3],2 (2×) and 1 (6×)
same,Clinical Observation,"[1]; UUO rats, individual animals No. 1-8, Day 3",diarrhea
same,Clinical Observation,"[1]; UUO rats, individual animals No. 1-8, Day 5",Anal
same,Clinical Observation,"[1]; UUO rats, individual animals No. 1-8, Day 6",Anal
same,Clinical Observation,"[1]; UUO rats, individual animals No. 1-8, Day 7",Anal
same,Clinical Observation,"[1]; UUO rats, individual animals No. 1-8, Day 8",soft
same,Clinical Observation,"[1]; UUO rats, individual animals No. 1-8, Day 9",soft
same,Clinical Observation,"[1]; UUO rats, individual animals No. 1-8, Day 10",soft
same,Clinical Observation,"[1]; UUO rats, individual animals No. 1-8, Day 13",soft
same,Clinical Observation,"[1]; UUO rats, individual animals No. 1-8, Day 14",Anal (2×) and soft
same,interstitial nephritis in representative pathology staining,"[1]; UUO rats, 30 mg/kg (FIG. 13B)",mild interstitial nephritis
same,animals exhibiting diarrhea,"[1]; UUO rats, 30 mg/kg, 14 days",One animal
same,animals exhibiting dirty anuses,"[1]; UUO rats, 30 mg/kg, 14 days",Three animals
same,animals exhibiting soft stools,"[1]; UUO rats, 30 mg/kg, 14 days",Four UUO rats
same,body weight over the 14-day study,"[1]; UUO rats, 30 mg/kg, BID at 0 and 8 hours, 14 days (group 3)","slight weight loss over the first seven days of the study, and then gained weight over the remaining seven days"
same,collagen fiber deposition score relative to UUO + vehicle,"[1]; UUO rats, 30 mg/kg, Day 14",reduced
same,interstitial nephritis score relative to UUO + vehicle,"[1]; UUO rats, 30 mg/kg, Day 14",reduced
same,nephropathy score relative to UUO + vehicle,"[1]; UUO rats, 30 mg/kg, Day 14",reduced
same,total clinical scores relative to UUO + vehicle,"[1]; UUO rats, 30 mg/kg, Day 14",reduced
same,"AUClast/D, Mean","[2]; PK study 1, IV 1 mg/kg",1883 (ng · h/mL)/(mg/kg)
same,"AUC—% Extrap_obs, Mean","[2]; PK study 1, IV 1 mg/kg",0.73%
same,"C0, Mean","[2]; PK study 1, IV 1 mg/kg",1512 ng/mL
same,"Cl_obs, Mean","[2]; PK study 1, IV 1 mg/kg",8.84 mL/min/kg
same,"Vss_obs, Mean","[2]; PK study 1, IV 1 mg/kg",0.733 L/kg
same,Vss_obs,"[2]; PK study 1, IV 1 mg/kg, Test Animal 1",0.734 L/kg
same,Vss_obs,"[2]; PK study 1, IV 1 mg/kg, Test Animal 2",0.747 L/kg
same,Vss_obs,"[2]; PK study 1, IV 1 mg/kg, Test Animal 3",0.719 L/kg
same,"AUClast/D, Mean","[2]; PK study 1, PO 5 mg/kg",830 (ng · h/mL)/(mg/kg)
same,"AUC—% Extrap_obs, Mean","[2]; PK study 1, PO 5 mg/kg",0.531%
same,"F, Mean","[2]; PK study 1, PO 5 mg/kg",44.0%
same,F,"[2]; PK study 1, PO 5 mg/kg, Test Animal 1",48.0%
same,AUClast/D,"[2]; PK study 1, PO 5 mg/kg, Test Animal 3",1000 (ng · h/mL)/(mg/kg)
same,clinical observations after intravenous administration,"[2]; beagle dogs, PK study 1, group 1 (IV), 20% propylene glycol/20% Vitamin E TPGS/60% water, individual animals",Vomitus with solid food and soft feces; also recorded: twitching of hindlimbs; also recorded: Slight twitching and lacrimation
same,clinical observations after oral administration,"[2]; beagle dogs, PK study 1, group 2 (PO), 20% propylene glycol/20% Vitamin E TPGS/60% water",Loose feces
same,time post-administration at which plasma concentrations began to steadily decrease,"[2]; beagle dogs, PK study 1, oral administration",approximately 1 h
same,tolerability in dog PK studies,"[2]; beagle dogs, oral and intravenous",well tolerated
same,concentration at 0.25 h,[2]; [4],173 ng/mL
same,concentration at 0.25 h,[2]; [5],775 ng/mL
same,concentration at 0.25 h,[2]; [6],309 ng/mL
same,concentration at 0.25 h,[2]; [7],419 ng/mL
same,concentration at 0.5 h,[2]; [4],1480 ng/mL
same,concentration at 0.5 h,[2]; [5],1550 ng/mL
same,concentration at 0.5 h,[2]; [6],1320 ng/mL
same,concentration at 0.5 h,[2]; [7],1450 ng/mL
same,concentration at 1 h,[2]; [4],2220 ng/mL
same,concentration at 1 h,[2]; [5],1180 ng/mL
same,concentration at 1 h,[2]; [6],2240 ng/mL
same,concentration at 1 h,[2]; [7],1880 ng/mL
same,concentration at 2 h,[2]; [4],1130 ng/mL
same,concentration at 2 h,[2]; [5],621 ng/mL
same,concentration at 2 h,[2]; [6],1310 ng/mL
same,concentration at 2 h,[2]; [7],1020 ng/mL
same,concentration at 4 h,[2]; [4],142 ng/mL
same,concentration at 4 h,[2]; [5],103 ng/mL
same,concentration at 4 h,[2]; [6],254 ng/mL
same,concentration at 4 h,[2]; [7],166 ng/mL
same,concentration at 8 h,[2]; [4],9.51 ng/mL
same,concentration at 8 h,[2]; [5],14.8 ng/mL
same,concentration at 8 h,[2]; [6],9.52 ng/mL
same,concentration at 8 h,[2]; [7],11.3 ng/mL
same,concentration at 24 h,[2]; [4],4.58 ng/mL
same,concentration at 24 h,[2]; [7],1.53 ng/mL
